Reference: US10815238B2, “Antimicrobial compounds and methods of making and using the same” (BIOVERSYS AG, priority 2013, dated 2020)

Legend:
[1] = system: Eschericia coli (E. coli) strain ATCC25922; test: Standard microdilution assay, MIC against E. coli ATCC25922; assay type: cell-based; details: Escherichia coli; E. coli strain ATCC25922, standard microdilution assay; cutoff 16 micrograms/mL; read-out: MIC E. Coli
Method in brief: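 MIC determined by broth microdilution following CLSI protocols, with reference strains run in parallel for quality control. Activity scored +/− at a cutoff of 16 micrograms/mL.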

[2] = system: Staphylococcus aureus (S. aureus) 11540 strain; test: Standard microdilution assay, MIC against S. aureus 11540; assay type: cell-based; details: S. aureus 11540 strain, standard microdilution assay, cutoff 16 micrograms/mL, read-out: MIC S. aureus
Procedure: The in vitro activity of the compounds of the present invention can be determined. Antimicrobial testing is typically performed to determine the minimum inhibitory concentration (MIC). Minimum inhibitory concentrations (MICs) are determined by the microdilution method in a final volume of 100 μl according to protocols outlined by The Clinical and Laboratory Standards Institute (CLSI). Performance standards for reference strains are assessed within the same experimental design to maintain quality control. See, for example, Clinical Laboratory Standards Institute: Methods for dilution antimicrobial susceptibility tests for bacteria that grow aerobically M7-A8. Approved Standard-Eighth Edition. Wayne, Pa.: CLSI; December 2008; and Clinical Laboratory Standards Institute: Performance Standards for Antimicrobial Susceptibility Testing M100-S20; Approved Standard-Twentieth Edition. Wayne, Pa.: CLSI; June 2010.
The compounds of the present invention were tested for antimicrobial activity. The Compounds 1-582 were run against Eschericia coli (E. coli) strain ATCC25922 and Compounds 320-582 were run against Staphylococcus aureus (S. aureus) 11540 strain using a standard microdilution assay to determine minimum inhibitory concentrations (MICs). […] It will be recognized by one skilled in the art that the compounds can be assessed against other bacterial organisms and that the presentation of data for activity against Eschericia coli and Staphylococcus aureus are illustrative and in no way is intended to limit the scope of the present invention. The compounds of the present invention can be assayed against a range of other microorganisms depending upon the performance activity desired to be gathered. Furthermore, the “+” and “−” representation and the selection of a cutoff value of 16 micrograms/mL is also illustrative and in no way is intended to limit the scope of the present invention.

SMILES	MIC [1] [µg/mL]	MIC [2] [µg/mL]
C[C@H](N)CCCc1cc(Cl)c(F)c(-c2cc3cn(-c4ccc([C@H](C)NCC[C@@H](CCN)NC(=N)N)cc4)c(=O)nc3[nH]2)c1 [Compound 313]	< 16	–
C[C@H](N)CCCc1cc(Cl)c(F)c(-c2cc3cn(-c4ccc([C@H](C)NCC[C@H](CCC#N)NC(=N)N)cc4)c(=O)nc3[nH]2)c1 [Compound 314]	< 16	–
C[C@H](N)CCCc1cc(OC(F)(F)F)c(F)c(-c2cc3cn(-c4ccc([C@H](C)NCC[C@H](CCC#N)NC(=N)N)cc4)c(=O)nc3[nH]2)c1 [Compound 315]	< 16	–
CC(=O)Oc1ccccc1C(=O)OC[C@H](N)CCCc1cc(Cl)c(F)c(-c2cc3cn(-c4ccc([C@H](C)NCCCNC(=N)N)cc4)c(=O)nc3[nH]2)c1 [Compound 316]	< 16	–
C[C@H](N)CCCc1cc(Cl)c(F)c(-c2cc3cn(-c4ccc([C@@H](C)NCCCNC(=N)N)cc4)c(=O)nc3[nH]2)c1 [Compound 317]	< 16	–
C[C@H](N)CCCc1cc(Cl)c(F)c(-c2cc3cn(-c4ccc([C@@H](C)NCCCN)cc4)c(=O)nc3[nH]2)c1 [Compound 318]	< 16	–
C[C@H](NCCCNC(=N)N)c1ccc(-n2cc3cc(-c4cc(CCC[C@@H](N)CN)cc(Cl)c4F)[nH]c3nc2=O)cc1 [Compound 319]	< 16	–
C[C@H](N)CCCc1cc(OC(F)(F)F)c(F)c(-c2cc3cn(-c4ccc([C@@H](C)NCCCN)cc4)c(=O)nc3[nH]2)c1 [Compound 320]	< 16	< 16
C[C@H](N)CCCc1cc(OC(F)(F)F)c(F)c(-c2cc3cn(-c4ccc([C@@H](C)NCCCNC(=N)N)cc4)c(=O)nc3[nH]2)c1 [Compound 321]	< 16	< 16
C[C@H](N)CCCc1cc(Cl)c(F)c(-c2cc3cn(-c4ccc(CNCC[C@H](CN5CCOCC5)NC(=N)N)cc4)c(=O)nc3[nH]2)c1 [Compound 322]	< 16	< 16
C[C@H](N)CCCc1cc(Cl)c(F)c(-c2cc3cn(-c4ccc([C@H](C)NCC[C@@H](Cn5cc(CN)nn5)NC(=N)N)cc4)c(=O)nc3[nH]2)c1 [Compound 323]	< 16	< 16
C[C@H](NCCCN)c1ccc(-n2cc3cc(-c4cc(CCC[C@H](C)NC(=N)N)cc(Cl)c4F)[nH]c3nc2=O)cc1 [Compound 324]	< 16	< 16
C[C@H](N)CCCc1cc(OC(F)(F)F)c(F)c(-c2cc3cn(-c4ccc([C@H](C)NCC[C@H](CCN)NC(=N)N)cc4)c(=O)nc3[nH]2)c1 [Compound 325]	< 16	< 16
C[C@H](NCCCNC(=N)N)c1ccc(-n2cc3cc(-c4cc(CCC[C@@H](N)CN=[N+]=[N-])cc(Cl)c4F)[nH]c3nc2=O)cc1 [Compound 326]	< 16	< 16
C[C@H](N)CCCc1cc(OC(F)(F)F)c(F)c(-c2cc3cn(-c4ccc([C@H](C)NCC[C@@H](Cn5cc(CN)nn5)NC(=N)N)cc4)c(=O)nc3[nH]2)c1 [Compound 327]	< 16	< 16
C[C@H](N)CCCc1cc(OC(F)(F)F)c(F)c(-c2cc3cn(-c4ccc(CNCC[C@H](CN5CCOCC5)NC(=N)N)cc4)c(=O)nc3[nH]2)c1 [Compound 328]	< 16	< 16
COC[C@@H](CCN[C@@H](C)c1ccc(-n2cc3cc(-c4cc(CCC[C@H](C)N)cc(OC(F)(F)F)c4F)[nH]c3nc2=O)cc1)NC(=N)N [Compound 329]	< 16	< 16
COC[C@@H](CCN[C@@H](C)c1ccc(-n2cc3cc(-c4cc(CCC[C@H](C)N)cc(Cl)c4F)[nH]c3nc2=O)cc1)NC(=N)N [Compound 330]	< 16	< 16
C[C@H](NCCCNC(=N)N)c1ccc(-n2cc3cc(-c4cc(CCC[C@@H](N)COC(=O)Cc5ccccc5)cc(Cl)c4F)[nH]c3nc2=O)cc1 [Compound 331]	< 16	< 16
C[C@H](N)CCCc1cc(Cl)c(F)c(-c2cc3cn(-c4ccc([C@H](C)NCC[C@H](CC#N)NC(=N)N)cc4)c(=O)nc3[nH]2)c1 [Compound 332]	< 16	< 16
C[C@H](N)CCCc1cc(OC(F)(F)F)c(F)c(-c2cc3cn(-c4ccc([C@H](C)NCC[C@H](CC#N)NC(=N)N)cc4)c(=O)nc3[nH]2)c1 [Compound 333]	< 16	< 16
C[C@H](N)CCCc1cc(Cl)c(F)c(-c2cc3cn(-c4ccc([C@H](C)NCC[C@H](CN5CCOCC5)NC(=N)N)cc4)c(=O)nc3[nH]2)c1 [Compound 334]	< 16	< 16

SMILES	MIC [1] [µg/mL]	MIC [2] [µg/mL]
C[C@H](N)CCCc1cc(OC(F)(F)F)c(F)c(-c2cc3cn(-c4ccc([C@H](C)NCC[C@@H](CCN)NC(=N)N)cc4)c(=O)nc3[nH]2)c1 [Compound 335]	< 16	< 16
C=C[C@@H](C[C@H](C)NCc1ccc(-n2cc3cc(-c4cc(CCC[C@H](C)N)cc(Cl)c4F)[nH]c3nc2=O)cc1)NC(=N)N [Compound 336]	< 16	< 16
C=C[C@@H](C[C@H](C)NCc1ccc(-n2cc3cc(-c4cc(CCC[C@H](C)N)cc(OC(F)(F)F)c4F)[nH]c3nc2=O)cc1)NC(=N)N [Compound 337]	< 16	< 16
C=C[C@H](C[C@H](C)NCc1ccc(-n2cc3cc(-c4cc(CCC[C@H](C)N)cc(Cl)c4F)[nH]c3nc2=O)cc1)NC(=N)N [Compound 338]	< 16	< 16
C=C[C@H](C[C@H](C)NCc1ccc(-n2cc3cc(-c4cc(CCC[C@H](C)N)cc(OC(F)(F)F)c4F)[nH]c3nc2=O)cc1)NC(=N)N [Compound 339]	< 16	< 16
COC[C@@H](CCNC(=N)N)NCc1ccc(-n2cc3cc(-c4cc(CCC[C@H](C)N)cc(Cl)c4F)[nH]c3nc2=O)cc1 [Compound 340]	< 16	< 16
C[C@H](N)CCCc1cc(Cl)c(F)c(-c2cc3cn(-c4ccc([C@H](C)NCC[C@@H](CN5CCOCC5)NC(=N)N)cc4)c(=O)nc3[nH]2)c1 [Compound 341]	< 16	< 16
C[C@H](N)CC[C@H](N)c1cc(Cl)c(F)c(-c2cc3cn(-c4ccc([C@H](C)NCCCNC(=N)N)cc4)c(=O)nc3[nH]2)c1 [Compound 342]	< 16	< 16
C[C@H](NCCCNC(=N)N)c1ccc(-n2cc3cc(-c4cc([C@@H]5CC[C@H](C)N5)cc(Cl)c4F)[nH]c3nc2=O)cc1 [Compound 343]	< 16	< 16
C[C@H](N)CCCc1cc(OC(F)(F)F)c(F)c(-c2cc3cn(-c4ccc([C@H](C)NCC[C@H](CC(N)=O)NC(=N)N)cc4)c(=O)nc3[nH]2)c1 [Compound 344]	< 16	< 16
COC[C@H](CCN[C@@H](C)c1ccc(-n2cc3cc(-c4cc(CCC[C@H](C)N)cc(Cl)c4F)[nH]c3nc2=O)cc1)NC(=N)N [Compound 345]	< 16	< 16
COC[C@H](CCN[C@@H](C)c1ccc(-n2cc3cc(-c4cc(CCC[C@H](C)N)cc(OC(F)(F)F)c4F)[nH]c3nc2=O)cc1)NC(=N)N [Compound 346]	< 16	< 16
COCC[C@H](CCN[C@@H](C)c1ccc(-n2cc3cc(-c4cc(CCC[C@H](C)N)cc(Cl)c4F)[nH]c3nc2=O)cc1)NC(=N)N [Compound 347]	< 16	< 16
C[C@H](N)CCCc1cc(Cl)c(F)c(-c2cc3cn(-c4ccc([C@H](C)NCC[C@H](CC(N)=O)NC(=N)N)cc4)c(=O)nc3[nH]2)c1 [Compound 348]	< 16	< 16
C[C@H](N)CCCc1cc(Cl)c(F)c(-c2cc3cn(-c4ccc([C@H]5CC[C@H](CCNC(=N)N)N5)cc4)c(=O)nc3[nH]2)c1 [Compound 349]	< 16	< 16
COCC[C@H](CCN[C@@H](C)c1ccc(-n2cc3cc(-c4cc(CCC[C@H](C)N)cc(OC(F)(F)F)c4F)[nH]c3nc2=O)cc1)NC(=N)N [Compound 350]	< 16	< 16
COC[C@@H](CCNC(=N)N)NCc1ccc(-n2cc3cc(-c4cc(CCC[C@H](C)N)cc(OC(F)(F)F)c4F)[nH]c3nc2=O)cc1 [Compound 351]	< 16	< 16
C[C@H](N)CCCc1cc(OC(F)(F)F)c(F)c(-c2cc3cn(-c4ccc([C@H]5CC[C@H](CCNC(=N)N)N5)cc4)c(=O)nc3[nH]2)c1 [Compound 352]	< 16	< 16
C[C@H](N)CCCc1cc(Cl)c(F)c(-c2cc3cn(-c4ccc([C@@H]5COC[C@@H](CCNC(=N)N)N5)cc4)c(=O)nc3[nH]2)c1 [Compound 353]	< 16	< 16
C[C@H](N)CCCc1cc(Cl)c(F)c(-c2cc3cn(-c4ccc([C@@H]5COC[C@@H](CCN)N5)cc4)c(=O)nc3[nH]2)c1 [Compound 354]	< 16	< 16
COC[C@H](CCNC(=N)N)N[C@@H](C)c1ccc(-n2cc3cc(-c4cc(CCC[C@H](C)N)cc(Cl)c4F)[nH]c3nc2=O)cc1 [Compound 355]	< 16	< 16
